Holding throughout (assay type): biochemical
In test [1] the target is KAT7+JADE1+EAF6+ING5 4 protein complex (Homo sapiens (Human), UniProt O95251). Put plainly: KAT7 JADE1 assay (SAMDI-MS acetylation of H3 1-21 peptide). The following applies: Morrison equation fit; replicate number in parentheses; read-out: KAT7 JADE1 Ki (nM) (replicate number).
The target in the next test is KAT6A Full length enzyme (Homo sapiens (Human), UniProt Q92794). Put plainly: KAT6A assay (SAMDI-MS acetylation of H3 1-21 peptide). The following applies: Morrison equation fit; replicate number in parentheses; read-out: KAT6A Ki (nM) (replicate number).
KAT6A Full length enzyme, sequence (Q92794 other isoform, or with tags, fused parts or gaps): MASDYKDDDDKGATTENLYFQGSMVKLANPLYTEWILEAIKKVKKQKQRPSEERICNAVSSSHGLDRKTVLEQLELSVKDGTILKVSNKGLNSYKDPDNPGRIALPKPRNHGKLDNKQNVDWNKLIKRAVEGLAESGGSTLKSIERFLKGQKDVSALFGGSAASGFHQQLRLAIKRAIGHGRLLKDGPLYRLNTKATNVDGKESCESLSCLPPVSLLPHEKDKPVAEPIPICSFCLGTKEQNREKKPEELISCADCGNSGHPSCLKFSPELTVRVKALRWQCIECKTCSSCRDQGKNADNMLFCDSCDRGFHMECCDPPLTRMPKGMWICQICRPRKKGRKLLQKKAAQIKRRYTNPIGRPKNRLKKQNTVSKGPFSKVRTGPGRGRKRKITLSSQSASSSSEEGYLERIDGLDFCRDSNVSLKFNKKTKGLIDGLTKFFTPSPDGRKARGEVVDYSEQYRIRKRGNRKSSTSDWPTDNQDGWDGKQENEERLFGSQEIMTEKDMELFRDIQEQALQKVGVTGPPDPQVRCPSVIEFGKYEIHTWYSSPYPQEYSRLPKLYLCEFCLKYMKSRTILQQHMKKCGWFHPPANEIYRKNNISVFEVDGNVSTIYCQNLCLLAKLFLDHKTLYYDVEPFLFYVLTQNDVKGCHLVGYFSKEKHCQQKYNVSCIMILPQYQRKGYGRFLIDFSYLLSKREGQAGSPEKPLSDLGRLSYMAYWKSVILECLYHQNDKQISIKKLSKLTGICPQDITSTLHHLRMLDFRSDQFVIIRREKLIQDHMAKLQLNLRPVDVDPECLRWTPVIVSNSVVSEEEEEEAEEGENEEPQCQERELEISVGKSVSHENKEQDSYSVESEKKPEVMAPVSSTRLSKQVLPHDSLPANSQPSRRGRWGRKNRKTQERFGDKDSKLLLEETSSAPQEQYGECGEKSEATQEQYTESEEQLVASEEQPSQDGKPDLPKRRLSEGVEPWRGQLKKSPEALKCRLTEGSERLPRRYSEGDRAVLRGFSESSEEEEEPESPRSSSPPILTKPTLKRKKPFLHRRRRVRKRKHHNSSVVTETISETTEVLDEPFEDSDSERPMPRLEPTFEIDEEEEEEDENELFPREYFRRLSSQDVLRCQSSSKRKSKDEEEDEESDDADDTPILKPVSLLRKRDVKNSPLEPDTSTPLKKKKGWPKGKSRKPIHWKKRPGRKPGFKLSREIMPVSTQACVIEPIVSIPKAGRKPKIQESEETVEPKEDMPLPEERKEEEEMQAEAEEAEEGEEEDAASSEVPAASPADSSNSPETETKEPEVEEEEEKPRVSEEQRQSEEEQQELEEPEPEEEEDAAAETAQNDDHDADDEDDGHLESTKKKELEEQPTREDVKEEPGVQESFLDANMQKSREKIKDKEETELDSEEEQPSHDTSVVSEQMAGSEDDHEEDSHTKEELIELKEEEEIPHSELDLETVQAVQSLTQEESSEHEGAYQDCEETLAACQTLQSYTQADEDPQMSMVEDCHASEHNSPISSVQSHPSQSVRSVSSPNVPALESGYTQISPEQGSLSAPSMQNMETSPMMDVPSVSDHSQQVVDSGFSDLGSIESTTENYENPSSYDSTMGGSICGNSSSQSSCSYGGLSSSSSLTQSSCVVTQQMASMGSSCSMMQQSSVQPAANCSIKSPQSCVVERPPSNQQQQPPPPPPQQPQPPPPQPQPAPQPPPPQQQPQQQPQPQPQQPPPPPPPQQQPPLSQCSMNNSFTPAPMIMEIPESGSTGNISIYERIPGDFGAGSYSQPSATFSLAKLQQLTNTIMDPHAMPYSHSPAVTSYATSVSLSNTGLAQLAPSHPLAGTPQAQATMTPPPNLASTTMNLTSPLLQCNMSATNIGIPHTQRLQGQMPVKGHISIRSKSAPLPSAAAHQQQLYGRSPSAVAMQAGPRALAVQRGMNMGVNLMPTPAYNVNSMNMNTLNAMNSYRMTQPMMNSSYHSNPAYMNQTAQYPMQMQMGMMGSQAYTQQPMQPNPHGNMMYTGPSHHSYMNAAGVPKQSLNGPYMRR
For the next test, the target named is KAT5 Full length enzyme (Homo sapiens (Human), UniProt Q92993). Put plainly: KAT5 assay (SAMDI-MS acetylation of H4 1-21 peptide). The settings on record: Morrison equation fit; replicate number in parentheses; read-out: KAT5 Ki (nM) (replicate number).
KAT5 Full length enzyme, sequence (Q92993 whole entry): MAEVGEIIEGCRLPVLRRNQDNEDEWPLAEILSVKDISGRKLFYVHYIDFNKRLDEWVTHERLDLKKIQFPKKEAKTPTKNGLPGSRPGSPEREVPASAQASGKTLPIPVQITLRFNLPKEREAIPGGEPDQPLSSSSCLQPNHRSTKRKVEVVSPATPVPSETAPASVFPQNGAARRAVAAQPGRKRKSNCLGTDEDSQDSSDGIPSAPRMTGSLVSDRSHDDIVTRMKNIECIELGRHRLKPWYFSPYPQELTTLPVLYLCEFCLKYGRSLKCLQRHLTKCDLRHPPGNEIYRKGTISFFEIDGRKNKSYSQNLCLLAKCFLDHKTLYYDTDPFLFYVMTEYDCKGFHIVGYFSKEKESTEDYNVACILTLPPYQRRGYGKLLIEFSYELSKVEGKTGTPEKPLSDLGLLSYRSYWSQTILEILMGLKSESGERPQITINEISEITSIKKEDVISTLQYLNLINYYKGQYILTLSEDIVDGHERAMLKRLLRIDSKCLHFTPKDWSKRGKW
Another test concerns the target KAT8 Full length enzyme (Homo sapiens (Human), UniProt Q9H7Z6). Put plainly: KAT8 assay (SAMDI-MS acetylation of H3 1-21 peptide). The settings on record: Morrison equation fit; replicate number in parentheses; read-out: KAT8 Ki (nM) (replicate number).
The target of test [2] is KAT7+BRPF1+EAF6+ING5 4 protein complex (Homo sapiens (Human), UniProt O95251). As to the kind of experiment: KAT7 BRPF1 assay (SAMDI-MS acetylation of H3 1-21 peptide). The following applies: Morrison equation fit; replicate number in parentheses.
Test [3] addresses KAT7+BRPF2+EAF6+ING5 4 protein complex (Homo sapiens (Human), UniProt O95251). Put plainly: KAT7 BRPF2 assay (SAMDI-MS acetylation of H3 1-21 peptide). The following applies: Morrison equation fit; replicate number in parentheses; read-out: KAT7 BRPF2 Ki (nM) (replicate number).

Each structure is given as a SMILES string.

KAT8 Full length enzyme, sequence (Q9H7Z6 whole entry): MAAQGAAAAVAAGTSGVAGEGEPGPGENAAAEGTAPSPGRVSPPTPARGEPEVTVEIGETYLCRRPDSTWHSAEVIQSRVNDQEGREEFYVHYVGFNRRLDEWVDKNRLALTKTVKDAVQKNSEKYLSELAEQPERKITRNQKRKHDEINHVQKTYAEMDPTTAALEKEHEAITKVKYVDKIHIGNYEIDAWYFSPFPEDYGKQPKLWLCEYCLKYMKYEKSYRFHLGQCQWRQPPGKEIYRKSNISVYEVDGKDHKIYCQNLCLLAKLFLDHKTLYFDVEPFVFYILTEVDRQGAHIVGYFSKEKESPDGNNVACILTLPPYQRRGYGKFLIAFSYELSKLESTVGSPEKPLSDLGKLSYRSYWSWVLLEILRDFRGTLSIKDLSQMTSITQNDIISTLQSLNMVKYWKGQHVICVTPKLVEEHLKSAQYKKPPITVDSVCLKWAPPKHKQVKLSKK

Regarding `CCOc1cc(C)c(F)cc1S(=O)(=O)Nc1noc2cc(Nc3cc(C(C)C)[nH]n3)c(OC)cc12` [Example 79, 2-ethoxy-5-fluoro-N-(5-methoxy-6-{[5-(propan-2-yl)-1H-pyrazol-3-yl]amino}-1,2-benzoxazol-3-yl)-4-methylbenzene-1-sulfonamide], the Ki stood at 119 nM in test [1]; 5.1 nM on KAT6A Full length enzyme; 692 nM at KAT5 Full length enzyme; 6570 nM on KAT8 Full length enzyme; 25.2 nM in test [2]; 26.5 nM in test [3].

With `COc1cc2c(NS(=O)(=O)c3cc4c(cc3OC)CCCC4)noc2cc1Nc1cc(C)n[nH]1` [Example 82, 3-methoxy-N-{5-methoxy-6-[(3-methyl-1H-pyrazol-5-yl)amino]-1,2-benzoxazol-3-yl}-5,6,7,8-tetrahydronaphthalene-2-sulfonamide], the inhibition constant Ki in test [1] is 31.8 nM; on KAT6A Full length enzyme, 0.1 nM; at KAT5 Full length enzyme, 33.8 nM; at KAT8 Full length enzyme, 467 nM; in test [2], 7.5 nM; in test [3], 18.3 nM.

As for `COc1cc2c(NS(=O)(=O)c3c(OC)cccc3OC)noc2cc1Nc1cc(C)n[nH]1` [Example 84, 2,6-dimethoxy-N-{5-methoxy-6-[(3-methyl-1H-pyrazol-5-yl)amino]-1,2-benzoxazol-3-yl}benzene-1-sulfonamide], the Ki stood at 50.6 nM in test [1]; 0.2 nM on KAT6A Full length enzyme; 82.3 nM on KAT5 Full length enzyme; 2970 nM at KAT8 Full length enzyme; 12.2 nM in test [2]; 10.1 nM in test [3].

On to `COc1cc2c(NS(=O)(=O)c3c(OC)cc([C@H]4COCCO4)cc3OC)noc2cc1Nc1cc(C2CC2)[nH]n1` [Example 146], for which the Ki was found to be 3.2 nM in test [1]; 0.9 nM on KAT6A Full length enzyme; 31.4 nM on KAT5 Full length enzyme; 865 nM at KAT8 Full length enzyme; 2.4 nM in test [2]; 1.7 nM in test [3].

What is called Ki is a dissociation constant, usually derived from enzyme kinetics or from competition with a known ligand.

The values above are taken from patent US20250122183A1 (Pfizer Inc., priority 2023, published 2025).
